System: GST1 gene
Test: GST1 gene expression in the mesenteron after artificial diet containing gossypol
Assay type: in vivo, cotton bollworm
Details: 5-day old larvae, 1 day, artificial diet with 1 mg/g gossypol (FIG. 7A)
Protocol: FIG. 7A show the change in GST 1 gene expression in the mesenteron of 5-day old cotton bollworm with the same growth vigor 1 day after eating artificial diet containing 1 mg/g gossypol. Lane 1 and 2 are cotton bollworm eating artificial diet with or without 1 mg/g gossypol respectively.

For Cc1cc2c(C(C)C)c(O)c(O)c(C=O)c2c(O)c1-c1c(C)cc2c(C(C)C)c(O)c(O)c(C=O)c2c1O [gossypol], the “GST1 gene expression in the mesenteron” value was “no significant effect”.

From patent US8895805B2, “Method for modifying insect resistance of plants by utilizing RNAi technique” (Shanghai Institutes for Biological Sciences, Chinese …, priority 2006, dated 2014)
